Test [1] addresses DNA (cytosine-5)-methyltransferase 3B (Homo sapiens) (UniProt Q9UBC3). The experiment in a line: (§1) Selectivity interaction (Enzymatic assay (human methyltransferases)) EUB0002223a DNMT3B. On the set-up: recommended concentration 1 uM. The conditions noted are these: at 50 µM.
The target in test [2] is DNA (cytosine-5)-methyltransferase 3A (Homo sapiens) (UniProt Q9Y6K1). Particulars: at 50 µM.
Test [3] shares this target. The conditions noted are these: at 50 µM. The source holds these as a separate data set.
The target of test [4] is DNA (cytosine-5)-methyltransferase 3B (Homo sapiens) (UniProt Q9UBC3). The test is described as §1. Particulars: at 50 µM. Details: recommended concentration 1 uM. The source holds these as a separate data set.
The target is the same in test [5]. The test is described as §1. On the set-up: recommended concentration 1 uM. Particulars: at 50 µM. The source holds these as a separate data set.
The target in test [6] is DNA (cytosine-5)-methyltransferase 3A (Homo sapiens) (UniProt Q9Y6K1). Particulars: at 50 µM. This is another data set of the same source.
Test [7] deals with DNA (cytosine-5)-methyltransferase 3B (Homo sapiens) (UniProt Q9UBC3). The test is described as §1. On the set-up: recommended concentration 1 uM. The conditions noted are these: at 50 µM. This is another data set of the same source.
In test [8] the target is DNA (cytosine-5)-methyltransferase 3A (Homo sapiens) (UniProt Q9Y6K1). The conditions noted are these: at 50 µM. This is another data set of the same source.
Test [9] addresses Nuclear receptor subfamily 2 group E member 1 (Homo sapiens) (UniProt Q9Y466). The test can be described thus: Selectivity interaction (Reporter gene assay) EUB0001477a NR2E1. On the set-up: recommended concentration 1 uM. (Reporter assays use an easily measured gene product as a stand-in for the process of interest.)
Test [10] deals with Nuclear receptor subfamily 4immunitygroup A member 1 (Homo sapiens) (UniProt P22736). The experiment in a line: Selectivity interaction (Reporter gene assay) EUB0001477a NR4A1. Details: recommended concentration 1 uM.
The target in test [11] is T1, Nuclear receptor subfamily 2 group C member 1 (Homo sapiens) (UniProt P13056).
T1 sequence (whole entry): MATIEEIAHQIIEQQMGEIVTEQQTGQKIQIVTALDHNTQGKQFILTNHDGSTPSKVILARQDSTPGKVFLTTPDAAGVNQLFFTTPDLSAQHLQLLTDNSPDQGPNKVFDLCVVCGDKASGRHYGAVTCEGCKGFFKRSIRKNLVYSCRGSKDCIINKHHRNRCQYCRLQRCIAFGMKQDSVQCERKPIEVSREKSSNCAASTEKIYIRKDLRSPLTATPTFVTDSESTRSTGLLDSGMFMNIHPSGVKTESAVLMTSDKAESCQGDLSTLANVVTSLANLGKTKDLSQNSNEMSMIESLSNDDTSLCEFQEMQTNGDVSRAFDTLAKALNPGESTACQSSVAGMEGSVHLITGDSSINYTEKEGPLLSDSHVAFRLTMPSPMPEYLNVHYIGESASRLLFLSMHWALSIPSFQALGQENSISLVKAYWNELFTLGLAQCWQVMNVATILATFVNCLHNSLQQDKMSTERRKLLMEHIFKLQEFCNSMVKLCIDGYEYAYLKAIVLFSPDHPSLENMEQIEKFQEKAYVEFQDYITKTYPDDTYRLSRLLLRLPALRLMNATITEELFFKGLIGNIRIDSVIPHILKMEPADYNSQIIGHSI
The test can be described thus: Selectivity interaction (Reporter gene assay) EUB0001477a NR2C1. On the set-up: recommended concentration 1 uM.

Test [12] concerns the target T2, Retinoic acid receptor RXR-alpha (Homo sapiens) (UniProt P19793).
T2 sequence (whole entry): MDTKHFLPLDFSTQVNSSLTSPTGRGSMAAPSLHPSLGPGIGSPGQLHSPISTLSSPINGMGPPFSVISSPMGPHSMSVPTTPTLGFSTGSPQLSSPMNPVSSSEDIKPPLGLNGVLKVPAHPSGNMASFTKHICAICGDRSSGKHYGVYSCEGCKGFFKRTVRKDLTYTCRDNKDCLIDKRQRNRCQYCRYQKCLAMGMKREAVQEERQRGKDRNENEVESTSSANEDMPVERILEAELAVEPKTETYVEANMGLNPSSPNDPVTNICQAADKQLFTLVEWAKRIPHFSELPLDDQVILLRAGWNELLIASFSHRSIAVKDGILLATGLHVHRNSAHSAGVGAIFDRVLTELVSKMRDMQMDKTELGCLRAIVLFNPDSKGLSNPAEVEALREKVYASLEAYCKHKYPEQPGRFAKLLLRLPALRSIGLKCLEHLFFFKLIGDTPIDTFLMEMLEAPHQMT
The experiment in a line: Selectivity interaction (Reporter gene assay) EUB0001477a RXRA. Particulars: reference bexarotene 1 uM, Selectivity number of off-targets 0.0, Selectivity number of targets 1.0, Source Knowledge inhouse. Details: recommended concentration 1 uM.

Test [13] deals with T3, Hepatocyte nuclear factor 4-alpha (Homo sapiens) (UniProt P41235).
T3 sequence (whole entry): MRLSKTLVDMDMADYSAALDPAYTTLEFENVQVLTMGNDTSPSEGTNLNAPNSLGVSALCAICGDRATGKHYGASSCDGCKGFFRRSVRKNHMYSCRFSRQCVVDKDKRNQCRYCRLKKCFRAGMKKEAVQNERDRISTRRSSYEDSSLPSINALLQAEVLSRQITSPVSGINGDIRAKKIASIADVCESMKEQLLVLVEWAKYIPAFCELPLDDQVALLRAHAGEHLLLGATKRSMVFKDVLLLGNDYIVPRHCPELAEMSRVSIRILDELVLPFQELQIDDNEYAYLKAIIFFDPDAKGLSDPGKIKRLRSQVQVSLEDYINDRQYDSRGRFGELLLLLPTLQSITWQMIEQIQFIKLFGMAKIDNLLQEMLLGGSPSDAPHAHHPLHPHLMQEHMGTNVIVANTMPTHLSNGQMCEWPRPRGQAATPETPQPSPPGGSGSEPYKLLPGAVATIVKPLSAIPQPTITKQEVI
The experiment in a line: Selectivity interaction (Reporter gene assay) EUB0001477a HNF4A. On the set-up: recommended concentration 1 uM.

Test [14] concerns the target T4, Alpha trans-inducing protein (Human alphaherpesvirus 1) (UniProt A0A5J6DW59). The experiment in a line: Selectivity interaction (Reporter gene assay) EUB0001477a UL48. On the set-up: recommended concentration 1 uM.
In test [15] the target is Steroidogenic factor 1 (Homo sapiens) (UniProt Q13285). The test can be described thus: Selectivity interaction (Reporter gene assay) EUB0001477a NR5A1. Details: recommended concentration 1 uM.
Test [16] addresses T2, Retinoic acid receptor RXR-alpha (Homo sapiens). The test can be described thus: Selectivity interaction (Reporter gene assay) EUB0001482aCl RXRA. Details: recommended concentration 10 uM. Particulars: reference bexarotene 1 uM, Selectivity number of off-targets 0.0, Selectivity number of targets 1.0, Source Knowledge inhouse.
Test [17] addresses Nuclear receptor subfamily 2 group E member 1 (Homo sapiens) (UniProt Q9Y466). The experiment in a line: Selectivity interaction (Reporter gene assay) EUB0001482aCl NR2E1. On the set-up: recommended concentration 10 uM.
Test [18] addresses T1, Nuclear receptor subfamily 2 group C member 1 (Homo sapiens). The test can be described thus: Selectivity interaction (Reporter gene assay) EUB0001482aCl NR2C1. On the set-up: recommended concentration 10 uM.
In test [19] the target is Steroidogenic factor 1 (Homo sapiens) (UniProt Q13285). The experiment in a line: Selectivity interaction (Reporter gene assay) EUB0001482aCl NR5A1. Details: recommended concentration 10 uM.
Test [20] has as its target T3, Hepatocyte nuclear factor 4-alpha (Homo sapiens). The test can be described thus: Selectivity interaction (Reporter gene assay) EUB0001482aCl HNF4A. Details: recommended concentration 10 uM.
Test [21] addresses T4, Alpha trans-inducing protein (Human alphaherpesvirus 1). The experiment in a line: Selectivity interaction (Reporter gene assay) EUB0001482aCl UL48. On the set-up: recommended concentration 10 uM.
The target in test [22] is Nuclear receptor subfamily 4immunitygroup A member 1 (Homo sapiens) (UniProt P22736). The test can be described thus: Selectivity interaction (Reporter gene assay) EUB0001482aCl NR4A1. On the set-up: recommended concentration 10 uM.
The target in test [23] is T4, Alpha trans-inducing protein (Human alphaherpesvirus 1). The test can be described thus: Selectivity interaction (Reporter gene assay) EUB0001483aCl UL48. On the set-up: recommended concentration 10 uM.
In test [24] the target is Nuclear receptor subfamily 2 group E member 1 (Homo sapiens) (UniProt Q9Y466). The test can be described thus: Selectivity interaction (Reporter gene assay) EUB0001483aCl NR2E1. Details: recommended concentration 10 uM.
Test [25] addresses Nuclear receptor subfamily 4immunitygroup A member 1 (Homo sapiens) (UniProt P22736). The experiment in a line: Selectivity interaction (Reporter gene assay) EUB0001483aCl NR4A1. Details: recommended concentration 10 uM.
Test [26] deals with T2, Retinoic acid receptor RXR-alpha (Homo sapiens). The experiment in a line: Selectivity interaction (Reporter gene assay) EUB0001483aCl RXRA. Particulars: reference bexarotene 1 uM, Selectivity number of off-targets 0.0, Selectivity number of targets 1.0, Source Knowledge inhouse. On the set-up: recommended concentration 10 uM.
Test [27] has as its target T3, Hepatocyte nuclear factor 4-alpha (Homo sapiens). The experiment in a line: Selectivity interaction (Reporter gene assay) EUB0001483aCl HNF4A. Details: recommended concentration 10 uM.
Test [28] deals with T1, Nuclear receptor subfamily 2 group C member 1 (Homo sapiens). The test can be described thus: Selectivity interaction (Reporter gene assay) EUB0001483aCl NR2C1. Details: recommended concentration 10 uM.
Test [29] has as its target Steroidogenic factor 1 (Homo sapiens) (UniProt Q13285). The test can be described thus: Selectivity interaction (Reporter gene assay) EUB0001483aCl NR5A1. On the set-up: recommended concentration 10 uM.

Chain of DNA (cytosine-5)-methyltransferase 3A (Homo sapiens) (Q9Y6K1 whole entry, looked up): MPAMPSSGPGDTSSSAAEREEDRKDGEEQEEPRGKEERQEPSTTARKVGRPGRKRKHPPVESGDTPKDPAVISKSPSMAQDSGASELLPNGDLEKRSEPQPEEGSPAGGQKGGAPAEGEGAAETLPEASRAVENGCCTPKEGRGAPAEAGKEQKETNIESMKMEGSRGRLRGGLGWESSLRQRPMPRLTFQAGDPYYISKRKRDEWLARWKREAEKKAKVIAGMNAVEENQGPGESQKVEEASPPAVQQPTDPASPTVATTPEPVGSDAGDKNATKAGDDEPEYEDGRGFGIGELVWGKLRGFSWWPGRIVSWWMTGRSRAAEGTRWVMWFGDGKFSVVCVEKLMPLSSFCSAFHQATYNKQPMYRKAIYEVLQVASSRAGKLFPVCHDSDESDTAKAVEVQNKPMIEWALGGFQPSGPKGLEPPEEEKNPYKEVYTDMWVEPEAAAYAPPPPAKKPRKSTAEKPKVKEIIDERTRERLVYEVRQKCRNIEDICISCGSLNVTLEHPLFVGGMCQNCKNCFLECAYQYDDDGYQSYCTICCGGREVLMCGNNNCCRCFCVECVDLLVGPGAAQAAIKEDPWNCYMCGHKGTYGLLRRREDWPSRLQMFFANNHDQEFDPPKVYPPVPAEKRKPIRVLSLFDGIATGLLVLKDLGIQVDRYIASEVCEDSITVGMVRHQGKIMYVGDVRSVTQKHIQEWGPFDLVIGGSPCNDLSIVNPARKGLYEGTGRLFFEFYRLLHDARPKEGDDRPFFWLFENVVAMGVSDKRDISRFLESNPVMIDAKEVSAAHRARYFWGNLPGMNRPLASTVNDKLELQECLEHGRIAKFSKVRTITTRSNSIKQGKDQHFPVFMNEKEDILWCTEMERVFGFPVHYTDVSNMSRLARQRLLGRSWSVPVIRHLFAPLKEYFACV
T4 sequence (A0A5J6DW59 as listed by the source): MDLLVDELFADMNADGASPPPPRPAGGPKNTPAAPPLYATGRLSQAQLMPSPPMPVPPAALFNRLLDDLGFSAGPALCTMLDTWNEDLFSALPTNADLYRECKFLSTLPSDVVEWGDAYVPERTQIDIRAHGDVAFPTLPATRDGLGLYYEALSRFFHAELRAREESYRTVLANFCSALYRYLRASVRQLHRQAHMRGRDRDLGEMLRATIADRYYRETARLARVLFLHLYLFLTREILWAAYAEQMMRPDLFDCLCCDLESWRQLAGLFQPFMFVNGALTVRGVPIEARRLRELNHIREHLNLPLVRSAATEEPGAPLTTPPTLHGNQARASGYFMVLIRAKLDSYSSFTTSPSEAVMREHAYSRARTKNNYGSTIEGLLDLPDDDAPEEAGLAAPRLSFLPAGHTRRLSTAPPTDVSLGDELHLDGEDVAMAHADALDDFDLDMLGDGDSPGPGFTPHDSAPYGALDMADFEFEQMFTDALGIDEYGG
Chain of Nuclear receptor subfamily 4immunitygroup A member 1 (Homo sapiens) (P22736 whole entry): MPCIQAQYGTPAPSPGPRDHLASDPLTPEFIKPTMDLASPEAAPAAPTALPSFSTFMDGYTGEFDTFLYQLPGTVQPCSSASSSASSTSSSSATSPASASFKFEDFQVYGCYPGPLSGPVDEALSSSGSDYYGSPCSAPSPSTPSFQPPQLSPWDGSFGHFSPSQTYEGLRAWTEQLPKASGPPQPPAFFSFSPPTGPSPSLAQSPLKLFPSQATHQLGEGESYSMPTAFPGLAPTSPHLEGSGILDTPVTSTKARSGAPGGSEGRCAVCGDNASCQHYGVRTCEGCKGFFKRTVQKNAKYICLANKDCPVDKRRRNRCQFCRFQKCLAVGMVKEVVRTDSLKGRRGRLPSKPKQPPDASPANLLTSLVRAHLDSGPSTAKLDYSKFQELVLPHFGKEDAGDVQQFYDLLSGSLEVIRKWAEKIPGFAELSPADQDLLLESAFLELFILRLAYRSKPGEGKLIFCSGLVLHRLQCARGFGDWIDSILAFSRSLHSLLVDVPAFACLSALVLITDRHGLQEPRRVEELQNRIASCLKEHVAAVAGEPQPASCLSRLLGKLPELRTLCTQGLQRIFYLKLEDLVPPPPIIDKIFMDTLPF
Chain of Steroidogenic factor 1 (Homo sapiens) (Q13285 whole entry): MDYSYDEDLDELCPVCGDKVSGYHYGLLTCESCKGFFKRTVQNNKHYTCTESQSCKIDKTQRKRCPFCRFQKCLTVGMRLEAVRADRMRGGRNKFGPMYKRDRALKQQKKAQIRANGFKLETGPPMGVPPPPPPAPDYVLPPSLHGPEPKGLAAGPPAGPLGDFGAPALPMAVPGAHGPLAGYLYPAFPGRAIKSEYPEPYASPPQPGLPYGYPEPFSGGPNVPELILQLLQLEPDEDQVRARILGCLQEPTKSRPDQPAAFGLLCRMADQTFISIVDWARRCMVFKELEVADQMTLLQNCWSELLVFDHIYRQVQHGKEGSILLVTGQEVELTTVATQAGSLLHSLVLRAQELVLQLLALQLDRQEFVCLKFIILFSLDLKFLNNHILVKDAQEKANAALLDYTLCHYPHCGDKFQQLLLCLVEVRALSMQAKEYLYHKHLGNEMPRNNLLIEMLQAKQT
Chain of Nuclear receptor subfamily 2 group E member 1 (Homo sapiens) (Q9Y466 whole entry): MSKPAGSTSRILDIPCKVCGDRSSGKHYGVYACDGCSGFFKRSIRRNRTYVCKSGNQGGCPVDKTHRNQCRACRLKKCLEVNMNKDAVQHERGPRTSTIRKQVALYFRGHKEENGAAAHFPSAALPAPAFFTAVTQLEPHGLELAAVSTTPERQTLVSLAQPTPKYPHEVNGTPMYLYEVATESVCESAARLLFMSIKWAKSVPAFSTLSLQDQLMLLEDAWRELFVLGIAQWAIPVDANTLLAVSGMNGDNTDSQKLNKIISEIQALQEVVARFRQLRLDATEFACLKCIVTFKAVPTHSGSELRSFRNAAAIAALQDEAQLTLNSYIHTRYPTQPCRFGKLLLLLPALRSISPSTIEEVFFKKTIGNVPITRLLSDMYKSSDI

In the case of `CCNC(=O)NCCSC[C@H]1O[C@@H](n2cnc3c(N)ncnc32)[C@H](O)[C@@H]1O`, the Enzyme activity in test [1] was found to be 45%; in [2] it was 38%; in test [3], 38%; in [4], 45%; in test [5] it was 45%; in test [6], 38%. For the same molecule, the Enzyme activity in test [7] worked out at 45%; in test [8], 38%.

Turning to `Clc1ccc(-c2nc3sccn3c2/C=N/OCc2ccc(Cl)c(Cl)c2)cc1`, the Remaining activity was 0.989 in test [9] and 0.934 in test [10]. Further, the Fold activation in test [11] came out at 1.23; in test [13] it was 1.11; in [15], 1.19. In test [12], this molecule showed a Relative activation of 0.637%. Moreover, the P-value in [14] was found to be 0.000158.

For `C[C@H](CCOc1cccc(CC(=O)O)c1)N(Cc1cccc(C(F)(F)F)c1Cl)CC(c1ccccc1)c1ccccc1`, the Relative activation in [16] stood at 0.905%. Besides, the Fold activation in test [17] came to 1.41; in [18], 1.42; in test [19] it was 1.11; in test [20] it was 1.02; in test [22], 1.25. The P-value in [21] amounted to 0.0185.

In test [23], `CN1CCN(c2ccc(/C=C(\C#N)c3ccccc3Br)cc2)CC1` yielded a P-value of 7.2e-05. Moreover, the Fold activation was determined as 1.32 in test [24]; 1.35 in [25]; 1.03 in test [27]; 1.32 in test [28]; 1.5 in test [29]. In addition, the Relative activation in [26] amounted to 1.47%.

For the origin of these results see ChEMBL document CHEMBL5715260, “Selectivity Literature for EUbOPEN Chemogenomic Library” (2024).
